In patent publication US9433592B2, “Pharmaceutical or veterinary antiviral compositions” (priority 2009, dated 2016):
“Also recorded” adds a separate entry of the source.

Legend:
[1] = test system: H3N2 A/Moscow/10/99; type: cell-based, influenza A virus
[2] = test system: H5N2 A/Finch/England/2051/94; type: cell-based, influenza A virus
[3] = in vitro; settings: human
[4] = test system: H1N1 A/New Caledonia/20/99; type: cell-based, influenza A virus
[5] = test system: pandemic H1N1 virus (A/California/07/2009); type: cell-based, influenza A virus
[6] = test system: H5N1 A/Turkey/582/2006; type: cell-based, influenza A virus
[7] = test system: influenza A viruses; experiment: Selectivity index summary (ratio between CC50 and EC50) on the viruses; type: cell-based, influenza A virus; settings: summary over the viruses tested (FIG. 4)
[8] = test system: H7N1 A/Chicken/Italy/2076/99; type: cell-based, influenza A virus

Row | SMILES | inhibition of the infectious cycle of H3N2 virus [1] | inhibition of the infectious cycle of H5N2 virus [2] | CC50 [3] [µM] | inhibition of the infectious cycle of H1N1 virus [4] | antiviral activity on pandemic H1N1 virus [5] | inhibition of the infectious cycle of H5N1 virus [6] | inhibition of the infectious cycle of low-MOI pandemic H1N1 virus [5] | inhibitor class by selectivity index (SI = CC50/EC50) [7] | inhibition of the infectious cycle of low-MOI H7N1 virus [8] | inhibition of the infectious cycle of low-MOI H1N1 virus [4]
1 | C1COC(NC(C2CC2)C2CC2)=N1 [rilmenidine] | inhibits the infectious cycle | inhibits the infectious cycle | 1120 | inhibits the infectious cycle | do not seem to have an impact | – | – | – | – | –
2 | Cc1nccc2c1[nH]c1cc(O)ccc12 [harmol, 1-Methyl-9H-beta-carbolin-7-ol] | inhibits the infectious cycle | inhibits the infectious cycle | 95 | – | characterized by antiviral activity | inhibits the infectious cycle | inhibits the infectious cycle | – | – | –
3 | COc1ccc(OC)c(C(O)CNC(=O)CN)c1.Cl (racemic) [midodrine, Acetamide, 2-amino-N-[2-(2,5-dimethoxyphenyl)-2-hydroxyethyl]-monohydrochloride, (±)-] | inhibits the infectious cycle of all the viruses tested | inhibits the infectious cycle of all the viruses tested | – | inhibits the infectious cycle of all the viruses tested | characterized by antiviral activity; also recorded: inhibits the infectious cycle of all the viruses tested | inhibits the infectious cycle of all the viruses tested | – | moderate (a moderate inhibitor has an SI between 10 and 50) | – | –
4 | CCN[C@H]1CN(CCCOC)S(=O)(=O)c2sc(S(N)(=O)=O)cc21 [brinzolamide, (R)-(+)-4-Ethylamino-2-(3-methoxypropyl)-3,4-dihydro-2H-thieno[3,2-e]-1,2-thiazine-6-sulfonamide-1,1-dioxide] | inhibits primarily the infectious cycle | – | ≥ 666 | – | do not seem to have an impact | – | – | – | inhibits primarily the infectious cycle | inhibits primarily the infectious cycle
